Test results as given in ChEMBL document CHEMBL6109078, “Pyrylium derivatives as outer membrane permeabilizers against MDR gram-negative bacteria via multi-target mode of action” (Eur J Med Chem, 2025).
The source made the active and inactive calls. The calls are words filed in the database; no cut-off is given here.

Legend:
Acinetobacter baumannii [1] = assay: Synergistic antibacterial activity against multi-drug resistant Acinetobacter baumannii clinical isolate 1 assessed as inhibition of bacterial growth in presence of polymyxin B by checkerboard assay; assay type: functional
Escherichia coli [2] = assay: Synergistic antibacterial activity against Escherichia coli ATCC 35218 assessed as fractional inhibitory concentration index in presence of polymyxin B by checkerboard assay; assay type: functional
Acinetobacter baumannii [3] = assay: Antibacterial activity against multi-drug resistant Acinetobacter baumannii clinical isolate 10 assessed as inhibition of bacterial growth by CLSI protocol based method; assay type: functional
Klebsiella pneumoniae [4] = assay: Synergistic antibacterial activity against Klebsiella pneumoniae assessed as inhibition of bacterial growth in presence of polymyxin B by checkerboard assay; assay type: functional, organism-based
Escherichia coli [5] = assay: Synergistic antibacterial activity against Escherichia coli CG-4 expressing MCR-1 and NDM-1 assessed as inhibition of bacterial growth in presence of polymyxin B by checkerboard assay; assay type: functional
Pseudomonas aeruginosa [6] = assay: Antibacterial activity Pseudomonas aeruginosa ATCC 27853 assessed as inhibition of bacterial growth by CLSI protocol based method; assay type: functional
Pseudomonas aeruginosa [7] = assay: Synergistic antibacterial activity against Pseudomonas aeruginosa assessed as inhibition of bacterial growth in presence of polymyxin B by checkerboard assay; assay type: functional, organism-based
Escherichia coli [8] = assay: Synergistic antibacterial activity against Escherichia coli ATCC 25922 assessed as inhibition of bacterial growth in presence of polymyxin B by checkerboard assay; assay type: functional
Escherichia coli [9] = assay: Synergistic antibacterial activity against Escherichia coli ATCC 25922 assessed as fractional inhibitory concentration index in presence of polymyxin B by checkerboard assay; assay type: functional
Acinetobacter baumannii [10] = assay: Synergistic antibacterial activity against multi-drug resistant Acinetobacter baumannii clinical isolate 5 assessed as fractional inhibitory concentration index in presence of gentamycin by checkerboard assay; assay type: functional
Escherichia coli [11] = assay: Synergistic antibacterial activity against Escherichia coli ATCC 25922 assessed as fractional inhibitory concentration index in presence of amikacin by checkerboard assay; assay type: functional
Acinetobacter baumannii [12] = assay: Synergistic antibacterial activity against multi-drug resistant Acinetobacter baumannii clinical isolate 14 assessed as inhibition of bacterial growth in presence of polymyxin B by checkerboard assay; assay type: functional
Acinetobacter baumannii [13] = assay: Synergistic antibacterial activity against multi-drug resistant Acinetobacter baumannii clinical isolate 43 assessed as fractional inhibitory concentration index in presence of gentamycin by checkerboard assay; assay type: functional
Escherichia coli [14] = assay: Synergistic antibacterial activity against Escherichia coli CG-4 expressing MCR-1 and NDM-1 assessed as fractional inhibitory concentration index in presence of […] by checkerboard assay; assay type: functional
Escherichia coli [15] = assay: Synergistic antibacterial activity against multi-drug resistant Escherichia coli clinical isolate 1 assessed as fractional inhibitory concentration index in presence of gentamycin by checkerboard assay; assay type: functional
Acinetobacter baumannii [16] = assay: Synergistic antibacterial activity against multi-drug resistant Acinetobacter baumannii clinical isolate 1 assessed as fractional inhibitory concentration index in presence of amikacin by checkerboard assay; assay type: functional
Acinetobacter baumannii [17] = assay: Antibacterial activity against multi-drug resistant Acinetobacter baumannii clinical isolate 4 assessed as inhibition of bacterial growth by CLSI protocol based method; assay type: functional
Acinetobacter baumannii [18] = assay: Synergistic antibacterial activity against multi-drug resistant Acinetobacter baumannii clinical isolate 14 assessed as fractional inhibitory concentration index in presence of amikacin by checkerboard assay; assay type: functional
Bacteria = assay: Binding affinity to His-tagged LptA (unknown origin) extracted from Escherichia coli BL21 (DE3) cells by BLI analysis
Escherichia coli [19] = assay: Synergistic antibacterial activity against Escherichia coli CG-4 expressing MCR-1 and NDM-1 assessed as fractional inhibitory concentration index in presence of polymyxin B by checkerboard assay; assay type: functional
Escherichia coli [20] = assay: Synergistic antibacterial activity against Escherichia coli ATCC 35218 assessed as inhibition of bacterial growth by measuring polymyxin B MIC by checkerboard assay; assay type: functional
Acinetobacter baumannii [21] = assay: Synergistic antibacterial activity against multi-drug resistant Acinetobacter baumannii clinical isolate 5 assessed as inhibition of bacterial growth by measuring polymyxin B MIC by checkerboard assay; assay type: functional
Escherichia coli [22] = assay: Synergistic antibacterial activity against Escherichia coli CG-4 expressing MCR-1 and NDM-1 assessed as inhibition of bacterial growth by measuring polymyxin B MIC by checkerboard assay; assay type: functional
Acinetobacter baumannii [23] = assay: Antibacterial activity against multi-drug resistant Acinetobacter baumannii clinical isolate 5 assessed as inhibition of bacterial growth by CLSI protocol based method; assay type: functional
Escherichia coli [24] = assay: Antibacterial activity against Escherichia coli ATCC 25922 assessed as inhibition of bacterial growth by CLSI protocol based method; assay type: functional
Escherichia coli [25] = assay: Antibacterial activity against Escherichia coli ATCC 25922 assessed as inhibition of bacterial growth by measuring decrease in bacterial count at 6.25 to 50 microg/ml measured after 12 hrs by time-kill kinetics analysis; assay type: functional; settings: dose 6.25-50 µg/ml
Acinetobacter baumannii [26] = assay: Synergistic antibacterial activity against Acinetobacter baumannii ATCC 19606 assessed as fractional inhibitory concentration index in presence of amikacin by checkerboard assay; assay type: functional
Escherichia coli [27] = assay: Synergistic antibacterial activity against multi-drug resistant Escherichia coli clinical isolate 1 assessed as fractional inhibitory concentration index in presence of polymyxin B by checkerboard assay; assay type: functional
Pseudomonas aeruginosa [28] = assay: Synergistic antibacterial activity against Pseudomonas aeruginosa assessed as inhibition of bacterial growth in presence of aminoglycoside by checkerboard assay; assay type: functional, organism-based
Acinetobacter baumannii [29] = assay: Antibacterial activity against multi-drug resistant Acinetobacter baumannii clinical isolate 51 assessed as inhibition of bacterial growth by CLSI protocol based method; assay type: functional
Klebsiella pneumoniae [30] = assay: Synergistic antibacterial activity against Klebsiella pneumoniae assessed as inhibition of bacterial growth in presence of aminoglycoside by checkerboard assay; assay type: functional, organism-based
Klebsiella pneumoniae [31] = assay: Antibacterial activity against Klebsiella pneumoniae ATCC 700603 assessed as inhibition of bacterial growth by CLSI protocol based method; assay type: functional
Escherichia coli [32] = assay: Synergistic antibacterial activity against multi-drug resistant Escherichia coli clinical isolate 1 assessed as inhibition of bacterial growth in presence of polymyxin B by checkerboard assay; assay type: functional
Escherichia coli [33] = assay: Antibacterial activity against ESBL positive Escherichia coli ATCC 35218 assessed as inhibition of bacterial growth by CLSI protocol based method; assay type: functional
Pseudomonas aeruginosa [34] = assay: Antibacterial activity Pseudomonas aeruginosa PAO1 assessed as inhibition of bacterial growth by CLSI protocol based method; assay type: functional
Acinetobacter baumannii [35] = assay: Synergistic antibacterial activity against Acinetobacter baumannii ATCC 19606 assessed as inhibition of bacterial growth in presence of polymyxin B by checkerboard assay; assay type: functional
Acinetobacter baumannii [36] = assay: Synergistic antibacterial activity against Acinetobacter baumannii ATCC 19606 assessed as fractional inhibitory concentration index in presence of polymyxin B by checkerboard assay; assay type: functional
Acinetobacter baumannii [37] = assay: Synergistic antibacterial activity against multi-drug resistant Acinetobacter baumannii clinical isolate 43 assessed as inhibition of bacterial growth by measuring polymyxin B MIC by checkerboard assay; assay type: functional
Acinetobacter baumannii [38] = assay: Synergistic antibacterial activity against multi-drug resistant Acinetobacter baumannii clinical isolate 5 assessed as fractional inhibitory concentration index in presence of polymyxin B by checkerboard assay; assay type: functional
Klebsiella pneumoniae [39] = assay: Antibacterial activity against Klebsiella pneumoniae BAA ATCC 1706 assessed as inhibition of bacterial growth by CLSI protocol based method; assay type: functional
Escherichia coli [40] = assay: Synergistic antibacterial activity against multi-drug resistant Escherichia coli clinical isolate 1 assessed as fractional inhibitory concentration index in presence of amikacin by checkerboard assay; assay type: functional
Acinetobacter baumannii [41] = assay: Synergistic antibacterial activity against multi-drug resistant Acinetobacter baumannii clinical isolate 1 assessed as fractional inhibitory concentration index in presence of gentamycin by checkerboard assay; assay type: functional

## CN1CCOc2cc(/C=C/c3cc(C(C)(C)C)[o+]c(C(C)(C)C)c3)ccc21.O=S(=O)([O-])C(F)(F)F
Acinetobacter baumannii [1]
  MIC: 12.5 µg/mL
Escherichia coli [2]
  fractional inhibitory concentration index (FICI): 0.312
Acinetobacter baumannii [3]
  MIC: 50 µg/mL
Klebsiella pneumoniae [4]
  Activity: inactive
Escherichia coli [5]
  MIC: 3.13 µg/mL
Pseudomonas aeruginosa [6]
  MIC: > 100 µg/mL
Pseudomonas aeruginosa [7]
  Activity: inactive
Escherichia coli [8]
  MIC: 12.5 µg/mL
Escherichia coli [9]
  fractional inhibitory concentration index (FICI): 0.266
Acinetobacter baumannii [10]
  fractional inhibitory concentration index (FICI): 0.125
Escherichia coli [11]
  fractional inhibitory concentration index (FICI): 0.125
Acinetobacter baumannii [12]
  MIC: 12.5 µg/mL
Acinetobacter baumannii [13]
  fractional inhibitory concentration index (FICI): 0.125
Escherichia coli [14]
  fractional inhibitory concentration index (FICI): 0.125
Escherichia coli [15]
  fractional inhibitory concentration index (FICI): 0.125
Acinetobacter baumannii [16]
  fractional inhibitory concentration index (FICI): 0.125
Acinetobacter baumannii [17]
  MIC: 100 µg/mL
Acinetobacter baumannii [18]
  fractional inhibitory concentration index (FICI): 0.125
Bacteria
  Activity: inactive
Escherichia coli [19]
  fractional inhibitory concentration index (FICI): 0.156
Escherichia coli [20]
  MIC: 63 10^-4 ug/ml
Acinetobacter baumannii [21]
  MIC: 0.006 µg/mL
Escherichia coli [22]
  MIC: 0.031 µg/mL
Acinetobacter baumannii [23]
  MIC: 50 µg/mL
Escherichia coli [24]
  MIC: 50 µg/mL
Escherichia coli [25]
  Activity: <6 log10CFU/ml
Acinetobacter baumannii [26]
  fractional inhibitory concentration index (FICI): 0.125
Escherichia coli [27]
  fractional inhibitory concentration index (FICI): 0.047
Pseudomonas aeruginosa [28]
  Activity: inactive
Acinetobacter baumannii [29]
  MIC: 50 µg/mL
Klebsiella pneumoniae [30]
  Activity: inactive
Klebsiella pneumoniae [31]
  MIC: > 100 µg/mL
Escherichia coli [32]
  MIC: 12.5 µg/mL
Escherichia coli [33]
  MIC: 25 µg/mL
Pseudomonas aeruginosa [34]
  MIC: > 100 µg/mL
Acinetobacter baumannii [35]
  MIC: 6.25 µg/mL
Acinetobacter baumannii [36]
  fractional inhibitory concentration index (FICI): 0.25
Acinetobacter baumannii [37]
  MIC: 1 10^-4 ug/ml
Acinetobacter baumannii [38]
  fractional inhibitory concentration index (FICI): 0.25
Klebsiella pneumoniae [39]
  MIC: > 100 µg/mL
Escherichia coli [40]
  fractional inhibitory concentration index (FICI): 0.125
Acinetobacter baumannii [41]
  fractional inhibitory concentration index (FICI): 0.125
